# Results: US10220096B2, “Injectable and stable hydrogels with dynamic properties modulated by biocompatible catalysts” (The Board of Trustees of the Leland Stanford Junior …, priority 2016, dated 2019)
# What was measured:
# [1] = Kinetic measurements on hydrazone exchange (model reaction, HPLC); details: for k1, rate of hydrazone formation / k−1, rate of hydrazone cleavage: PBS pH about 7.4, about 37° C.
# Experimental: 2-(aminomethyl)benzimidazole (1 in FIG. 2) is an efficient catalyst to accelerate hydrazone formation owing to facilitated intramolecular proton transfer in the transition state. The rates for hydrazone formation (k1) and cleavage (k−1) in the presence of 1 were measured using model reactions between hydrazine and aldehyde and modeled for a reversible second-order reaction (FIG. 8), and the equilibrium constant (Keq) was calculated from these rate constants. […] The gelation time of the HA-hydrazone hydrogels was dramatically shortened in the presence of 1. […] In the presence of about 25 mM of 1, gelation occurred in less than about 60 s and reached a final plateau shear modulus of about 800 Pa in about 5 min (FIG. 3b). Increasing the catalyst loading to about 100 mM further shortened the time to reach equilibrium to about 3 min (FIG. 3b). As shown in the frequency sweep experiment (FIG. 3c), stable gels were formed with a plateau storage modulus (G′) of about 1 kPa, which is more than an order of magnitude higher than the loss modulus (G″). […] In contrast, altering the HA polymer composition from about 1 to about 4 wt. % increased the plateau modulus (FIG. 3c). […] The rate of stress relaxation under constant strain was quantified by the time for the initially measured stress to relax to half of its original value, τ1/2. […] Accelerated hydrazone exchange by an incorporated catalyst also allowed these hydrogels to be readily remolded macroscopically (FIG. 9), facilitating their injection and re-processing. […] Therefore, the design provides a strategy to tune the modulus and rate of stress relaxation, two important mechanical properties for dynamic hydrogel materials, independently and continuously by polymer concentration and catalyst concentration, respectively.
# The equilibrium constant (Keq) and rate constants for hydrazone formation (k1) and cleavage (k−1) between aldehyde S1 and hydrazine S3 as model compounds with different concentrations of catalyst 1 were measured by HPLC. S3 was synthesized by coupling N-(2-aminoethyl)-4-amino-1,8-naphthalimide with hydrazine using carbodiimide chemistry. About 2 mM stock solutions of hydrazine and aldehyde were prepared in a PBS buffer (1×, pH of about 7.4). An about 250 mM stock solution of catalyst 1 was prepared in PBS as described in the previous sections.
# For the reactions performed in the absence of catalyst, about 10 μL of hydrazine and about 10 μL of aldehyde stock solutions were added to about 980 μL PBS buffer (1×, pH of about 7.4). For the reactions performed in the presence of catalyst 1, the appropriate amount of catalyst 1, hydrazine, and aldehyde were sequentially added to PBS buffer (1×, pH of about 7.4) from their stock solutions, maintaining the same concentrations for hydrazine and aldehyde as those without a catalyst. The reactions were performed at about 37° C. in a water bath and followed using HPLC with detection at about 420 nm absorption (HPLC conditions: XBridge 10 μm C18 column; about 40% acetonitrile in PBS buffer (pH of about 7) isocratic elution in about 7 min at a flow rate of about 0.34 mL/min. The concentrations and conversions were calculated from the integrals of the HPLC signals. The kinetic data of hydrazone formation were fitted to a kinetic model for 2nd order reactions using Matlab (FIG. 8).
# Conditions: about 137 mM NaCl, about 2.7 mM KCl, about 12 mM phosphate, pH of about 7.4 buffer, about 37° C.
# [2] = Compression test, remoldability of hydrogels; assay type: physicochemical; details: hydrogel containing about 100 mM of 1
# Description: FIG. 9. Compression test showing remoldability of HA-hydrazone hydrogels was improved with the addition of a catalyst.
# [3] = tested on: Human Umbilical Vein Endothelial Cells (HUVECs); assay: Catalyst toxicity, MTT cell viability assay; assay type: cell-based; details: 2D culture
# Experimental: Human Umbilical Vein Endothelial Cells (HUVECs) were obtained from Lonza. HUVECs were expanded in growth medium composed of about 10% fetal bovine serum, about 1% penicillin/streptomycin in EBM-2. The medium was changed every about 3 d and the cells were passaged at about 70% confluency. Cells were used at passage 5 or lower for all experiments.
# HUVECs pre-seeded in 96-well plates at about 10^4 cells/well were incubated with catalysts 1 and 2 for about 1 h, about 4 h, about 24 h and about 72 h. Afterwards, the cells were washed with PBS, the cell viability MTT assay was carried out to determine the cell viabilities relative to the control cells incubated with the same volume of PBS.
# [4] = Rheological tests of HA-hydrazone hydrogels (time sweep, frequency sweep, stress relaxation); assay type: physicochemical; details: for τ1/2, time for stress to relax to half of its original value: about 10% strain
# Experimental: HA-hydrazine and HA-aldehyde were first solubilized in PBS (1×, pH of about 7.4) at 5 wt. % respectively. Catalyst 1 and 2 were dissolved in PBS (1×, pH of about 7.4) and adjusted pH to about 7.4 at a stock concentration of about 250 mM. HA hydrogels were prepared by mixing HA-hydrazine, catalyst, and HA-aldehyde stock solutions successively at hydrazine to aldehyde (molar) ratio of about 1:1. The volumes of stock solutions were adjusted to make gels with different formulations.
# Rheological characterization was performed on a stress-controlled rheometer (AR-G2, TA instrument) using a 20 mm cone plate. About 45 μL of a sample was loaded immediately onto the rheometer after mixing to gel in situ on the rheometer and a humidity chamber was secured in place to prevent dehydration. All the tests were performed at about 37° C. Time sweeps were performed at about 1 Hz at about 1% constant strain. Frequency sweeps were performed from about 0.1 to about 10 Hz at about 1% constant strain. Stress relaxation experiments were performed at about 10% strain.
# [5] = tested on: HUVECs encapsulated in hydrogel; assay: In vitro cell injection and quantification of viability (LIVE/DEAD); assay type: cell-based, Human; details: about 2 wt. % hydrogel with about 25 mM of 2, 28-gauge needle, about 20 min post-injection
# Experimental: (§1) Evaluation was performed on the effect of catalyst 2 incorporated in HA-hydrazone hydrogels on the protection of encapsulated cells during injection. HUVECs were homogeneously encapsulated in about 2 wt. % hydrogels containing about 25 mM of 2 by rapidly mixing the cells suspended in HA solutions with catalyst and transferring to a syringe. Hydrogel was rapidly formed in the syringe and ejected through a 28-gauge syringe needle. A syringe pump was used for all cell injection experiments to ensure consistent flow rate for accurate comparison between all samples.
# After injection, cells encapsulated in the hydrogels were incubated for about 20 min, and cell viability was then analyzed using a LIVE/DEAD staining assay.
# Cell suspension was first mixed with HA-hydrazine stock solutions before further mixing with catalyst and HA-aldehyde stock solutions. All in vitro injection experiments were performed with about 30 μL gel volume containing about 3×10^4 cells. For cell injection, the final mixing stage was performed in the barrel of an about 1 mL insulin syringe fitted with a 28 gauge needle. […] Cell viability was determined using LIVE/DEAD viability/cytotoxicity kit (Invitrogen) at about 20 min post-injection and about 3 d post-injection (n=5). […] Cell numbers were quantified using ImageJ at each time point.
# [6] = Ejection of hydrogel through 28-gauge syringe needle (injectability); assay type: physicochemical; details: about 2 wt. % hydrogel with about 25 mM of 2
# Experimental: as §1
# [7] = Hydrogel erosion study (uronic acid assay); assay type: physicochemical
# Experimental: Long-term stability of hydrogel scaffolds is often desired to provide support for cell adhesion and growth after cell injection. Rapid hydrogel erosion is a challenge for many dynamic and injectable hydrogels. It is proposed that rapid passive diffusion of the dissolved small molecule catalyst away from the hydrogel post-injection would slow down the dynamic exchange of hydrazone crosslinks and thus enhance the hydrogel stability. Therefore evaluation was performed to monitor the diffusion of 2, which was incorporated in the hydrogel at either about 25 mM or about 50 mM initial concentration, into the buffer solution after injection by monitoring its absorption at about 281 nm. After about 50 μL hydrogel was injected and immersed in about 1 mL PBS, about 60% of 2 diffused out of the hydrogel within about 1 h, and less than about 1% remained inside the gel after about 8 h (FIG. 5a). To examine whether the rapid diffusion and thus removal of catalyst can increase the long-term stability of the hydrogels, comparison is performed of the erosion rate of hydrogels with different initial concentrations of incorporated catalyst. […] Hydrogels initially containing about 25 mM or about 50 mM of catalyst 2 had erosion rates of about 3.8 and about 4.1% per day respectively, similar to those without a catalyst (FIG. 5b), presumably due to rapid diffusion of 2 out of the hydrogels. In contrast, when diffusion of 2 away from the hydrogel was prevented by immersing the hydrogel into a buffer solution containing about 25 mM of 2, the hydrogel was completely dissolved within about 12 h (FIG. 12). […]
# (§2) HA hydrogels containing 0, about 25, and about 50 mM of catalyst 2 were prepared as described in the previous section. […] Catalyst diffusion was quantified using UV measurement by monitoring absorption at about 281 nm. HA erosion was quantified by uronic acid assay according to reported procedures.
# [8] = Catalyst diffusion out of hydrogel (UV absorption at about 281 nm); assay type: physicochemical; details: about 50 μL hydrogel in about 1 mL PBS
# Experimental: Long-term stability of hydrogel scaffolds is often desired to provide support for cell adhesion and growth after cell injection. Rapid hydrogel erosion is a challenge for many dynamic and injectable hydrogels. It is proposed that rapid passive diffusion of the dissolved small molecule catalyst away from the hydrogel post-injection would slow down the dynamic exchange of hydrazone crosslinks and thus enhance the hydrogel stability. Therefore evaluation was performed to monitor the diffusion of 2, which was incorporated in the hydrogel at either about 25 mM or about 50 mM initial concentration, into the buffer solution after injection by monitoring its absorption at about 281 nm. After about 50 μL hydrogel was injected and immersed in about 1 mL PBS, about 60% of 2 diffused out of the hydrogel within about 1 h, and less than about 1% remained inside the gel after about 8 h (FIG. 5a). […]
# as §2
# [9] = about 2 wt. % HA hydrogel, about 25 mM of 1
compound,measurement,setting,value
"NCc1nc2ccccc2[nH]1 [catalyst 1, 2-(aminomethyl)benzimidazole]","k1, rate of hydrazone formation",[1]; 25 mM of 1,127 M⁻¹ s⁻¹
same,"k−1, rate of hydrazone cleavage",[1]; 25 mM of 1,0.00103 s⁻¹
same,"k1, rate of hydrazone formation",[1]; 50 mM of 1,250 M⁻¹ s⁻¹
same,"k−1, rate of hydrazone cleavage",[1]; 50 mM of 1,0.00203 s⁻¹
same,"k1, rate of hydrazone formation",[1]; 100 mM of 1,495 M⁻¹ s⁻¹
same,"k−1, rate of hydrazone cleavage",[1]; 100 mM of 1,0.00401 s⁻¹
same,enhancement of k1,[1]; about 25 mM of 1,about 24 fold
same,enhancement of k−1,[1]; about 25 mM of 1,about 24 fold
same,enhancement of k1,[1]; about 50 mM of 1,about 47 fold
same,enhancement of k−1,[1]; about 50 mM of 1,about 47 fold
same,enhancement of k1,[1]; about 100 mM of 1,about 94 fold
same,enhancement of k−1,[1]; about 100 mM of 1,about 94 fold
same,remoldability after pressing from about 2.4 mm to about 0.6 mm for about 5 min,[2],adopted the height of the mold
same,HUVEC cell death,"[3]; about 25 mM, within several hours",Significant cell death
same,"τ1/2, time for stress to relax to half of its original value",[4]; about 25 mM of 1,about 10 min
same,"τ1/2, time for stress to relax to half of its original value",[4]; about 100 mM of 1,about 3 min
same,final plateau shear modulus,[4]; [9],about 800 Pa
same,time to reach final plateau shear modulus,[4]; [9],about 5 min
same,gelation time,"[4]; about 2 wt. % HA hydrogel, about 25 mM of 1, about 37° C.",less than 60 s
same,time to reach equilibrium (gelation),"[4]; about 2 wt. % HA hydrogel, about 100 mM of 1",about 3 min
NCc1nc2ccccc2n1CCCS(=O)(=O)O [catalyst 2],cell viability after injection,[5],about 87%
same,HUVEC cell death,"[3]; about 5 mM, after about 3 days",negligible cell death
same,cells remaining viable,"[3]; about 25 mM, about 24 h exposure",about 85%
same,injectability through 28-gauge needle,[6],readily ejected through the thin needle without clogging
same,time to complete dissolution of hydrogel,[7]; hydrogel immersed in buffer containing about 25 mM of 2 (diffusion prevented),≤ 12 h
same,erosion rate,[7]; hydrogel initially containing about 25 mM of catalyst 2,about 3.8 % per day
same,erosion rate,[7]; hydrogel initially containing about 50 mM of catalyst 2,about 4.1 % per day
same,fraction of catalyst remaining inside the gel,[8]; after about 8 h,less than 1%
same,fraction of catalyst diffused out of the hydrogel,"[8]; within about 1 h, about 25 or 50 mM initial",about 60%
